Two compounds from US6472213B1, “Shuttle vectors for the introduction of DNA into mycobacteria and utilization of such bacteria as vaccines” (Institut National de la Sante et de la Recherche Medicale …, priority 1994, dated 2002) can be followed below.

Assay [1] has as its system non-transformed control mycobacteria. Type of assay: cell-based, M. smegmatis, M. bovis BCG, M. tuberculosis.
For assay [2], the system named is pVN2-carrying mycobacteria. The format is cell-based, M. smegmatis, M. bovis BCG, M. tuberculosis.
Assay [3] relates to mycobacteria carrying the plasmid pMR001. The format is cell-based, M. smegmatis, M. bovis BCG, M. tuberculosis.
The subject of assay [4] is Mycobacterium smegmatis carrying plasmid pVN3. In words: Resistance to arsenic conferred by plasmid pVN3. Type of assay: cell-based. The following applies: pVN3 in Mycobacterium smegmatis.

Where only a bound is given, the exact number is not on record here.

Regarding `[Cl][Hg][Cl]` [HgCl2], in assay [1], the “MIC Liquid medium” value is 1.25 µg/mL, the “MIC Solid medium” value was determined as 0.15 µg/mL, the “concentration at which considerable susceptibility is shown” value was found to be 0.15 µg/mL and the “concentration of complete inhibition of bacterial growth (MIC)” value was found to be 1 µg/mL. In addition, in assay [2], the “MIC Liquid medium” value came to 40 µg/mL, the “MIC Solid medium” value stood at 160 µg/mL and the “concentration up to which growth occurs” value was not above 40 µg/mL. Further, in assay [3], the “MIC Liquid medium” value stood at 40 µg/mL, the “MIC Solid medium” value stood at 160 µg/mL, the “concentration at which still capable of growing” value came out at 20 µg/mL and the “concentration of complete inhibition of bacterial growth” value is 160 µg/mL.
With arsenic nitrate [AsNO3], the resistance level in assay [4] was approximately 10 mg/L.
